Data on 16 compounds can be found in patent US5686477A, “5-(arloxymethyl)oxazolines” (Adir et Compagnie, priority 1994, dated 1997).

The Ki is a dissociation constant, usually derived from enzyme kinetics or from competition with a known ligand. Broadly, the pKa is the pH at which an ionisable group is half protonated. Read a high pKa as a weaker acid or stronger base. As a reminder, the logP is the decadic logarithm of the partition coefficient of the neutral form, usually between octanol and water.

The target in one data set is imidazoline I1-receptors. Kind of data set: Binding to imidazoline I1-receptors, displacement of [3H]-clonidine (in vitro). The following applies: [3H]-clonidine + 10 μM norepinephrine; bovine lateral reticular nucleus. From the text: (§1) EXAMPLE A: PROFILE OF BINDING TO IMIDAZOLINE I1 - AND I2 -RECEPTORS. (IN VITRO STUDY)
(§2) To measure in vitro the binding affinity of the compounds of the invention for I1 - and I2 -receptors, by determining the capacity of those compounds to displace specific radioligands of the imidazoline I1 - and I2 -receptors.
(§3) The following Table gives the radioligand used to label the receptor, the compound and the concentration selected to determine the non-specific fraction and the tissue selected.
(§4) Radioligand non specific
10 μM of cold clonidine
(In general: In a radioligand displacement assay an active substance lowers the binding of a labelled ligand.)

A further data set has as its target imidazoline I2-receptors. Kind of data set: Binding to imidazoline I2-receptors, displacement of [3H]-idazoxane (in vitro). As to conditions: [3H]-idazoxane + 10 μM norepinephrine; rabbit renal cortex.
From the text: as §1, §2, §3, §4
10^-5 M rabbit renal cortex

Another data set in a line: dipole moment. In kind it is physicochemical.

On to `Cc1cccc(OCC2CN=C(N)O2)c1C` (stereo not drawn) [Example 13, 5-[(2,3-DIMETHYLPHENOXY)METHYL]-4,5-DIHYDRO-OXAZOL-2-YLAMINE], for which the values for the inhibition constant (Ki) at imidazoline I1-receptors and at imidazoline I2-receptors were 64 nM and 450 nM, respectively.

With `Cc1cc(Cl)ccc1OCC1CN=C(N)O1` (stereo not drawn) [Example 17, 5-[(4-CHLORO-2-METHYLPHENOXY)METHYL]-4,5-DIHYDRO-OXAZOL-2-YLAMINE], the Ki on imidazoline I1-receptors amounted to 120 nM; on imidazoline I2-receptors, 1000 nM.

As for `Cc1ccccc1OCC1CN=C(N)O1` (single isomer, unassigned) [Example 28, 5-[(2-METHYLPHENOXY)METHYL]-4,5-DIHYDRO-OXAZOL-2-YLAMINE], the values for the inhibition constant (Ki) on imidazoline I1-receptors and on imidazoline I2-receptors were 370 nM and 13000 nM, respectively.

In the case of `Cc1ccc(OCC2CN=C(N)O2)c(C)c1` (stereo not drawn) [Example 10, 5-[(2,4-DIMETHYLPHENOXY)METHYL]-4,5-DIHYDRO-OXAZOL-2-YLAMINE], the Ki at imidazoline I1-receptors is 160 nM; at imidazoline I2-receptors, 3900 nM.

Turning to `NC1=NCC(COc2ccccc2[N+](=O)[O-])O1` (stereo not drawn) [Example 21, 5-[(2-NITROPHENOXY)METHYL]-4,5-DIHYDRO-OXAZOL-2-YLAMINE], the results for the Ki on imidazoline I1-receptors and at imidazoline I2-receptors were 500 nM and 3900 nM, respectively.

For `CC(=O)c1ccccc1OCC1CN=C(N)O1` (stereo not drawn) [Example 23, 5-[(2-ACETYLPHENOXY)METHYL]-4,5-DIHYDRO-OXAZOL-2-YLAMINE], the Ki at imidazoline I1-receptors was 170 nM; on imidazoline I2-receptors, 7700 nM.

For `Cc1ccccc1OCC1CN=C(N)O1` (racemic) [Example 1, 5-[(2-METHYLPHENOXY)METHYL]-4,5-DIHYDRO-OXAZOL-2-YLAMINE], in “pKa”, the pKa was determined as 8.54. Also, the Ki at imidazoline I1-receptors came to 8.5 nM; at imidazoline I2-receptors it was 920 nM. The compound also gave a logP in “log Po/w” of 1.69. The dipole moment was 1.80 D in “dipole moment” (benzene) and 2.07 D in the data set “dipole moment” (dioxane).

In the case of `Cc1ccc(C)c(OCC2CN=C(N)O2)c1` (stereo not drawn) [Example 16, 5-[(2,5-DIMETHYLPHENOXY)METHYL]-4,5-DIHYDRO-OXAZOL-2-YLAMINE], the inhibition constant Ki on imidazoline I1-receptors was 85 nM; at imidazoline I2-receptors it was 1600 nM.

As to `CCNC1=NCC(COc2ccccc2C)O1` (stereo not drawn) [Example 27, N-ETHYL-N-[5-(2-METHYLPHENOXY)METHYL-4,5-DIHYDRO-OXAZOL-2-YL]AMINE], the Ki at imidazoline I1-receptors was 170 nM; at imidazoline I2-receptors it was 1000 nM.

As for `N#Cc1ccccc1OCC1CN=C(N)O1` (stereo not drawn) [Example 22, 5-[(2-CYANOPHENOXY)METHYL]-4,5-DIHYDRO-OXAZOL-2-YLAMINE], the results for the Ki on imidazoline I1-receptors and on imidazoline I2-receptors were 48 nM and 2400 nM, respectively.

In the case of `CCCNC1=NCC(COc2ccccc2C)O1` (stereo not drawn) [Example 26, N-n-PROPYL-N-[5-(2-METHYLPHENOXY)METHYL-4,5-DIHYDRO-OXAZOL-2-YL]AMINE], the figures for the Ki on imidazoline I1-receptors and on imidazoline I2-receptors were 670 nM and 1400 nM, respectively.

As to `NC1=NCC(COc2ccccc2F)O1` (stereo not drawn) [Example 20, 5-[(2-FLUOROPHENOXY)METHYL]-4,5-DIHYDRO-OXAZOL-2-YLAMINE], the inhibition constant (Ki) at imidazoline I1-receptors stood at 210 nM; on imidazoline I2-receptors, 1300 nM.

On to `CC(C)c1ccccc1OCC1CN=C(N)O1` (stereo not drawn) [Example 19, 5-[(2-ISOPROPYLPHENOXY)METHYL]-4,5-DIHYDRO-OXAZOL-2-YLAMINE], for which the Ki at imidazoline I1-receptors turned out to be 120 nM; on imidazoline I2-receptors, 2100 nM.

With `CCc1ccccc1OCC1CN=C(N)O1` (stereo not drawn) [Example 18, 5-[(2-ETHYLPHENOXY)METHYL]-4,5-DIHYDRO-OXAZOL-2-YLAMINE], the Ki was determined as 100 nM at imidazoline I1-receptors and 1800 nM at imidazoline I2-receptors.

`Cc1ccccc1OCC1CN=C(N)O1` (single isomer, unassigned) [Example 29, 5-[(2-METHYLPHENOXY)METHYL]-4,5-DIHYDRO-OXAZOL-2-YLAMINE]: the Ki at imidazoline I1-receptors is 5.8 nM; on imidazoline I2-receptors, 7500 nM.

As for `Cc1cccc(C)c1OCC1CN=C(N)O1` (stereo not drawn) [Example 9, 5-[(2,6-DIMETHYLPHENOXY)METHYL]-4,5-DIHYDRO-OXAZOL-2-YLAMINE], the Ki on imidazoline I1-receptors worked out at 57 nM; at imidazoline I2-receptors it was 2100 nM.
